Measurements from patent US10639299B2, “Calcium sensing receptors, ligands, compositions, and methods of use” (Georgia State University Research Foundation, Inc., priority 2016, dated 2020).

Target: T1, CaSR (Homo sapiens, UniProt P41180)
T1 sequence (P41180 20-1078): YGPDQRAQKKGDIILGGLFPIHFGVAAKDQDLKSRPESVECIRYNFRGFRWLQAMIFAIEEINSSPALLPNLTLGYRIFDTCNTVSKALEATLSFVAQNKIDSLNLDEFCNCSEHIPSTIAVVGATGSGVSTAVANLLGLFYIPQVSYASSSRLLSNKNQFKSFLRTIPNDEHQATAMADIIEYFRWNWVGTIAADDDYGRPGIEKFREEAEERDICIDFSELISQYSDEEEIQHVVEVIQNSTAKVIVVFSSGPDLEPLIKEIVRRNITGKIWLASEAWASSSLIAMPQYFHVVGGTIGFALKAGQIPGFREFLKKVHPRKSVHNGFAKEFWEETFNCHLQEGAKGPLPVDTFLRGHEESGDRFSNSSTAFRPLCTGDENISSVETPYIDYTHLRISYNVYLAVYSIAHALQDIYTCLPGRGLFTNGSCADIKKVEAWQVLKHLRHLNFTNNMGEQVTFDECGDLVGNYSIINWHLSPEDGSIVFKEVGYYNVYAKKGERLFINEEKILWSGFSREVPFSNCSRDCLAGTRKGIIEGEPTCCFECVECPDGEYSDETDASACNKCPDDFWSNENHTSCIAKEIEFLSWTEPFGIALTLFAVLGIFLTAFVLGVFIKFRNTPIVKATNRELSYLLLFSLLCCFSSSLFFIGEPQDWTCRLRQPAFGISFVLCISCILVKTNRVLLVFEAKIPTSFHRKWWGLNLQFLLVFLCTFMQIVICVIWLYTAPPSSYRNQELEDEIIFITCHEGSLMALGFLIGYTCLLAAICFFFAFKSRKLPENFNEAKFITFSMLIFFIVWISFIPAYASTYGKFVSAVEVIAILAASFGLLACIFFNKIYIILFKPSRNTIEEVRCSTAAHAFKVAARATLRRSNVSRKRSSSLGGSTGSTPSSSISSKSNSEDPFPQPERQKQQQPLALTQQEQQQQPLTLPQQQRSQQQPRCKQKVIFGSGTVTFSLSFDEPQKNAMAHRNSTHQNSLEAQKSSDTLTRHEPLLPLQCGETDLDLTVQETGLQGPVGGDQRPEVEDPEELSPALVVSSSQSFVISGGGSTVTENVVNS
Test: [Ca^2+]i signaling (Fura-2) evoked by [Mg^2+]o/[Ca^2+]o in CaSR-expressing HEK293 cells (5001 cell population assay)
Format: cell-based
Design: expressed in transfected cells
Description: Measurement of intracellular free Ca^2+ was assessed as described by Huang, et al^33. Briefly, wild type CaSR, or its mutants, were transiently transfected into HEK293 cells grown on coverslips and cultured for 48 h. The cells were subsequently loaded for 15 min using 2 μM Fura-2 AM in 2 mL physiological saline buffer (10 mM HEPES, 140 mM NaCl, 5 mM KCl, 1.0 mM MgCl2 and pH 7.4). The coverslips were mounted in a bath chamber on the stage of a Leica DM6000 fluorescence microscope. The cells were alternately illuminated with 340 or 380 nm light, and the fluorescence at an emission wavelength 510 nm was recorded in real time as the [Ca^2+]o and/or [Mg^2+]o was increased in a stepwise manner in the presence or absence of 0.25 mM TNCA in buffer (10 mM HEPES, 155 mM NaCl, 5 mM KCl, 2 mM NaH2PO4, 0.5 mM MgCl2 and pH 7.4). The ratio of the emitted fluorescence intensities resulting from excitation at both wavelengths was utilized as a surrogate for changes in [Ca^2+]i and was further plotted and analyzed as a function of [Ca^2+]o. All experiments were performed at room temperature. The signals from 20 to 100 single cells were recorded for each measurement. Oscillations were identified as three successive fluctuations in [Ca^2+]i after the initial peak. Determination of the Effect of TNCA on Mg^2+-Evoked [Ca^2+]i Signaling by Stimulation of CaSR in Cell Populations.
Changes in the intracellular Ca^2+ concentration [Ca^2+ ]i elicited by extracellular Mg^2+ ([Mg^2+]o) in a population of cells were measured by fluorimetry as described previously^33. A cell line stably expressing CaSR (designated the “5001 cell line”) was seeded on 13.5×20-mm coverslips and cultured in DMEM. After reaching 95% confluence, cells were washed three times using loading buffer (20 mM HEPES [pH 7.4], 125 mM NaCl, 5 mM KCl, 1.25 mM CaCl2, 1 mM MgCl2, 1 mM NaH2PO4, 1% glucose, and 1% BSA) and subsequently incubated with 4 μM Fura-2 and 4 μM pluronic F127 for 20 minutes at 37° C. to enable sufficient dye loading in the same buffer. After removing the excess Fura-2, coverslips with cells were diagonally positioned in a quartz cuvette filled with 3 ml of experimental buffer (125 mM NaCl, 5 mM KCl, 0.5 mM CaCl2, 0.5 mM MgCl2, 1% glucose, and 1% BSA). Measurements of Fura-2 fluorescence at 510 nm when excited at 340 or 380 nm were performed on a QM1 fluorescence spectrophotometer (PTI). The emission ratio of 340/380 was calculated and used to reflect the changes in [Ca^2+]i when different concentrations of [Mg^2+]o were applied to the cells.
To examine the co-activation of CaSR by TNCA and [Mg^2+]o or [Ca^2+]o, different concentrations of TNCA were placed in the experimental buffer with a fixed concentration of [Ca^2+]o and varying concentrations of [Mg^2+]o, or vice versa, as described in the results section. The effects of other ligands were analyzed by comparing the changes in [Ca^2+ ]i produced by [Mg^2+]o alone or by co-application of Mg^2+ with other ligands. The EC50 of [Mg^2+]o obtained during incubation with various concentrations of TNCA is compared with that observed in the presence of [Mg^2+]o alone. The EC50 changes were plotted as a function of TNCA concentration and the curve was fit to the Hill equation. The activation of CaSR by the TNCA, functioning as a co-agonist with [Mg^2+]o, is indicated by the increasingly leftward-shifted EC50 for [Mg^2+]o as the concentration of TNCA increases (FIG. 6).

Question: For `N[C@@H](Cc1ccccc1)C(=O)O` [Phe, phenylalanine], which “effect on [Mg^2+]o activation of CaSR” value is on record?
Answer: further potentiated
